Test results published in the NIST ThermoML archive (doi:10.1021/je900468u).
Values joined by “and” are separate entries in the source; they are usually repeats but may differ in a detail not shown here. Equal entries are not always repeated.

What was measured:
[1] = 101 kPa, Liquid; for speed of sound: Pulse-echo method
[2] = refractive index (Na D-line) (dimensionless); conditions: 101.33 kPa, Liquid, Standard Abbe refractometry
[3] = xn = mol fraction of the nth substance listed; conditions: 101 kPa, Liquid; for speed of sound: Pulse-echo method
[4] = refractive index (Na D-line) (dimensionless); xn = mol fraction of the nth substance listed; conditions: 101 kPa, Liquid, Standard Abbe refractometry

c1ccccc1 [benzene]
Conditions	mass density, [1]	refractive index, [2]	speed of sound, [1] [m/s]
283.15 K	889.5 kg/m3	1.50765	1371
298.15 K	873.9 kg/m3 and 873.6 kg/m3	1.49774	1299

C1CCCCC1 [cyclohexane]
Conditions	mass density, [1] [kg/m3]	refractive index, [2]	speed of sound, [1] [m/s]
283.15 K	787.8	1.43193	1329
298.15 K	773.9	1.4236	1255

C1CCCCCCC1 [cyclooctane]
298.15 K
Conditions	mass density [kg/m3]	refractive index	speed of sound [m/s]
[1]	831.5	–	1391
[2]	–	1.45598	–

CCc1ccccc1 [ethylbenzene]
Conditions	mass density, [1] [kg/m3]	refractive index, [2]	speed of sound, [1] [m/s]
283.15 K	875.7	1.50129	1382
298.15 K	862.5	1.49304	1319

CC1CCCCC1 [methylcyclohexane]
Conditions	mass density, [1] [kg/m3]	refractive index, [2]	speed of sound, [1] [m/s]
283.15 K	777.9	1.42833	1281
298.15 K	765.1	1.42062	1215

CC1CCCCC1 [methylcyclohexane] + Cc1ccccc1
Conditions	mass density, [3] [kg/m3]	refractive index, [4]	speed of sound, [3] [m/s]
283.15 K, x1 = 0.05	869.8	1.49797	1363
283.15 K, x1 = 0.0998	863.7	1.49331	1356
283.15 K, x1 = 0.198	852	1.48436	1342
283.15 K, x1 = 0.2951	841	1.47614	1330
283.15 K, x1 = 0.3968	830.3	1.46797	1320
283.15 K, x1 = 0.4959	820.3	1.46042	1311
283.15 K, x1 = 0.5973	810.7	1.45319	1302
283.15 K, x1 = 0.697	801.8	1.44643	1296
283.15 K, x1 = 0.7954	793.5	1.44018	1290
283.15 K, x1 = 0.8932	785.8	1.4342	1285
283.15 K, x1 = 0.9487	781.6	1.43118	1283
283.15 K, x1 = 1	777.9	1.42833	1281
298.15 K, x1 = 0.05	855.9	1.48937	1297
298.15 K, x1 = 0.0998	849.9	1.48481	1290
298.15 K, x1 = 0.198	838.2	1.47597	1276
298.15 K, x1 = 0.2951	827.4	1.4678	1264
298.15 K, x1 = 0.3968	816.8	1.45982	1253
298.15 K, x1 = 0.4959	806.9	1.45225	1244
298.15 K, x1 = 0.5973	797.4	1.44519	1236
298.15 K, x1 = 0.697	788.6	1.4385	1229
298.15 K, x1 = 0.7954	780.4	1.43233	1223
298.15 K, x1 = 0.8932	772.7	1.42635	1219
298.15 K, x1 = 0.9487	768.6	1.42344	1216
298.15 K, x1 = 1	765.1	1.42062	1215

CC1CCCCC1 [methylcyclohexane] + c1ccccc1
Conditions	mass density, [3] [kg/m3]	refractive index, [4]	speed of sound, [3] [m/s]
283.15 K, x1 = 0.0504	880.6	1.50135	1359
283.15 K, x1 = 0.099	872.4	1.49548	1350
283.15 K, x1 = 0.1998	856.9	1.48438	1333
283.15 K, x1 = 0.2978	843.4	1.47501	1320
283.15 K, x1 = 0.3991	830.7	1.46578	1308
283.15 K, x1 = 0.4993	819.5	1.45783	1299
283.15 K, x1 = 0.598	809.6	1.45078	1293
283.15 K, x1 = 0.6991	800.5	1.44435	1288
283.15 K, x1 = 0.7981	792.4	1.43862	1284
283.15 K, x1 = 0.8961	784.9	1.4333	1282
283.15 K, x1 = 0.9523	781	1.43058	1282
283.15 K, x1 = 1	777.9	1.42833	1281
298.15 K, x1 = 0.0504	865	1.49162	1289
298.15 K, x1 = 0.099	857.1	1.48594	1280
298.15 K, x1 = 0.1998	841.9	1.47509	1263
298.15 K, x1 = 0.2978	828.8	1.46597	1250
298.15 K, x1 = 0.3991	816.5	1.45706	1240
298.15 K, x1 = 0.4993	805.7	1.44934	1231
298.15 K, x1 = 0.598	796	1.44247	1225
298.15 K, x1 = 0.6991	787.2	1.43623	1220
298.15 K, x1 = 0.7981	779.3	1.43061	1217
298.15 K, x1 = 0.8961	772	1.42549	1216
298.15 K, x1 = 0.9523	768.2	1.42279	1215
298.15 K, x1 = 1	765.1	1.42062	1215

Cc1ccccc1 [toluene]
Conditions	mass density, [1] [kg/m3]	refractive index, [2]	speed of sound, [1] [m/s]
283.15 K	876.1	1.50278	1371
298.15 K	862.2	1.49399	1305

Cc1ccccc1 [toluene] + C1CCCCC1
x2 = 0
Conditions	mass density, [3] [kg/m3]	refractive index, [4]	speed of sound, [3] [m/s]
283.15 K	876.1	1.50278	1371
298.15 K	862.2	1.49399	1305

Cc1ccccc1 [toluene] + C1CCCCCCC1
298.15 K, x2 = 0
Conditions	mass density [kg/m3]	refractive index	speed of sound [m/s]
[3]	862.2	–	1305
[4]	–	1.49399	–

Cc1ccccc1 [toluene] + CC1CCCCC1
x2 = 0
Conditions	mass density, [3] [kg/m3]	refractive index, [4]	speed of sound, [3] [m/s]
283.15 K	876.1	1.50278	1371
298.15 K	862.2	1.49399	1305
